Biological target: T1, human FAAH (Homo sapiens, UniProt O00519)
T1 construct: expressed in transfected cells; host or cells: H4 cells stably transfected with human FAAH (Geneticin selection); crude membrane homogenates
T1 sequence (O00519 1-579): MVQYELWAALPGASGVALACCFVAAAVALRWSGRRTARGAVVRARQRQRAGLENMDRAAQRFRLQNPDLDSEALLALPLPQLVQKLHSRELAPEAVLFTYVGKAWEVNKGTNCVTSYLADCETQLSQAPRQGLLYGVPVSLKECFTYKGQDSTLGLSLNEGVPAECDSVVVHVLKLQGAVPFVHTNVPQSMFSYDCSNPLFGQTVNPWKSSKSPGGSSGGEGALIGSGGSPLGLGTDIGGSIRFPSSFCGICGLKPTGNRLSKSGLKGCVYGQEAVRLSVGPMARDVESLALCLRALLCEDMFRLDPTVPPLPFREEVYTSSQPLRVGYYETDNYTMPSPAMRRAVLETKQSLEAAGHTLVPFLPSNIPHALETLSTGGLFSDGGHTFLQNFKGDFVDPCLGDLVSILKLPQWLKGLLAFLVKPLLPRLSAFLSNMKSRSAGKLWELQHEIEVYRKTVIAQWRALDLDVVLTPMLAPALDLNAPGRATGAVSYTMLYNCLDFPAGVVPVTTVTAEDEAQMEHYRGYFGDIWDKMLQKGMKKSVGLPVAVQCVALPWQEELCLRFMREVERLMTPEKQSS
Experiment: Determination of FAAH activity (membrane homogenates of H4-FAAH cells, [3H]-anandamide hydrolysis)
Type: biochemical
Settings: transfected human FAAH, H4-FAAH cell membranes, 10 μM anandamide, room temperature, one hour
Procedure: Homogenates of crude membranes were prepared from H4 cells that express transfected human FAAH (H4-FAAH cells). Briefly, cells were grown in DMEM supplemented with 10% FBS and Geneticin at a final concentration of 500 μg/ml (Gibco BRL, Rockville, Md.). Confluent cultures of H4-FAAH cells were rinsed twice with phosphate-buffered saline [138 mM NaCl, 4.1 mM KCl, 5.1 mM Na2PO4, 1.5 mM KH2PO4 (pH 7.5), 37° C.] and incubated for 5-10 min. at 4° C. in lysis buffer [1 mM sodium bicarbonate]. Cells were transferred from plates to polypropylene tubes (16×100 mm), homogenized and centrifuged at 32,000×g for 30 min. Pellets were resuspended by homogenization in lysis buffer and centrifuged at 32,000×g for 30 min. Pellets were resuspended in lysis buffer (15-20 μg protein/ml) then stored at −80° C. until needed. On the day of an experiment, membranes were diluted to 2.67 μg protein/ml in 125 mM Tris-Cl, pH 9.0
Activity of FAAH was measured using a modification of the method described by Omeir et al., 1995 (Life Sci 56:1999, 1995). Membrane homogenates (240 ng protein) were incubated at room temperature for one hour with 1.67 nM anandamide [ethanolamine 1-^3H] (American Radiolabeled Chemical Inc., St Louis, Mo.) and 10 μM anandamide (Sigma/RBI, St. Louis, Mo.) in the absence and presence of inhibitors. The reaction was stopped by the addition of 1 volume of a solution of methanol and dichloroethane (1:1). The mixture was shaken and then centrifuged at 1000×g for 15 min. to separate the aqueous and organic phases. An aliquot of the aqueous phase, containing [^3H]-ethanolamine was withdrawn and counted by scintillation spectroscopy. Data were expressed as the percentage of [^3H]-ethanolamine formed versus vehicle, after subtraction of the background radioactivity determined in the presence of 10 μM arachidonyl trifluoromethyl ketone (ATFMK), an inhibitor of FAAH. IC50 values were determined using a four-parameter logistic equation for dose-response curves.

| SMILES | IC50 |
| --- | --- |
| COc1ccc(OC(=O)NCCCCCn2c(C)nc(-c3ccccc3)c2-c2ccccc2)cc1 [Example 36, [5-(2-Methyl-4,5-diphenyl-imidazol-1-yl)-pentyl]-carbamic acid 4-methoxy-phenyl ester] | 10 to 100 nM |
| Cc1ccccc1OC(=O)NCCCCCn1c(C)nc(-c2ccccc2)c1-c1ccccc1 [Example 37, [5-(2-Methyl-4,5-diphenyl-imidazol-1-yl)-pentyl]-carbamic acid o-tolyl ester] | 100 to 1000 nM |
| Cc1nc(-c2ccccc2)c(-c2ccccc2)n1CCCCCNC(=O)Oc1ccc(C#N)cc1 [Example 38, [5-(2-Methyl-4,5-diphenyl-imidazol-1-yl)-pentyl]-carbamic acid 4-cyano-phenyl ester] | 10 to 100 nM |
| COc1cccc(OC)c1OC(=O)NCCCCCn1c(C)nc(-c2ccccc2)c1-c1ccccc1 [Example 39, [5-(2-Methyl-4,5-diphenyl-imidazol-1-yl)-pentyl]-carbamic acid 2,6-dimethoxy-phenyl ester] | 1000 to 10000 nM |
| COc1ccccc1OC(=O)NCCCCCn1c(C)nc(-c2ccccc2)c1-c1ccccc1 [Example 40, [5-(2-Methyl-4,5-diphenyl-imidazol-1-yl)-pentyl]-carbamic acid 2-methoxy-phenyl ester] | 100 to 1000 nM |
| Cc1nc(-c2ccccc2)c(-c2ccccc2)n1CCCCCCNC(=O)Oc1ccc(F)c(F)c1 [Example 41, [6-(2-Methyl-4,5-diphenyl-imidazol-1-yl)-hexyl]-carbamic acid 3,4-difluoro-phenyl ester] | < 10 nM |
| Cc1nc(-c2ccc(F)cc2)c(-c2ccc(F)cc2)n1CCCCCCNC(=O)Oc1ccccc1F [Example 43, {6-[4,5-Bis-(4-fluoro-phenyl)-2-methyl-imidazol-1-yl]-hexyl}-carbamic acid 2-fluoro-phenyl ester] | < 10 nM |
| Cc1nc(-c2ccc(F)cc2)c(-c2ccc(F)cc2)n1CCCCCCNC(=O)Oc1c(F)cccc1F [Example 44, {6-[4,5-Bis-(4-fluoro-phenyl)-2-methyl-imidazol-1-yl]-hexyl}-carbamic acid 2,6-difluoro-phenyl ester] | 10 to 100 nM |
| CCOC(=O)NCCCCCCn1c(C)nc(-c2ccccc2)c1-c1ccccc1 [Example 45, [6-(2-Methyl-4,5-diphenyl-imidazol-1-yl)-hexyl]-carbamic acid ethyl ester] | 100 to 1000 nM |
| Cc1nc(-c2ccccc2)c(-c2ccccc2)n1CCCCCCNC(=O)O/N=C/c1ccccc1 [Example 46, Benzaldehyde, O-[6-(2-methyl-4,5-diphenyl-1H-imidazol-1-yl)hexylaminocarbonyl]oxime] | 10 to 100 nM |
| Cc1nc(-c2ccccc2)c(-c2ccccc2)n1CCCCCCNC(=O)O/N=C/c1ccc(F)cc1 [Example 47, 4-Fluorobenzaldehyde,O-[6-(2-methyl-4,5-diphenyl-1H-imidazol-1-yl)hexylaminocarbonyl]oxime] | 10 to 100 nM |
| Cc1nc(-c2ccccc2)c(-c2ccccc2)n1CCCCCCNC(=O)O/N=C/c1ccccc1[N+](=O)[O-] [Example 48, 2-Nitrobenzaldehye, O-[6-(2-methyl-4,5-diphenyl-1H-imidazol-1-yl)hexylaminocarbonyl]oxime] | 10 to 100 nM |
| Cc1nc(-c2ccccc2)c(-c2ccccc2)n1CCCCCCNC(=O)O/N=C/c1cccc([N+](=O)[O-])c1 [Example 49, 3-Nitrobenzaldehyde, O-[6-(2-methyl-4,5-diphenyl-1H-imidazol-1-yl)hexylaminocarbonyl]oxime] | 10 to 100 nM |
| Cc1nc(-c2ccccc2)c(-c2ccccc2)n1CCCCCCNC(=O)O/N=C/c1ccc([N+](=O)[O-])cc1 [Example 50, 4-Nitrobenzaldehyde, O-{6-(2-methyl-4,5-diphenyl-1H-imidazol-1-yl)hexylaminocarbonyl]oxime] | 10 to 100 nM |
| Cc1nc(-c2ccccc2)c(-c2ccccc2)n1CCCCCCNC(=O)O/N=C/c1cccnc1 [Example 51, 3-Pyridinecarboxaldehyde, O-[6-(2-methyl-4,5-diphenyl-1H-imidazol-1-yl)hexylaminocarbonyl]oxime] | 10 to 100 nM |
| Cc1nc(-c2ccccc2)c(-c2ccccc2)n1CCOc1ccc(NC(=O)Oc2ccc(F)c(F)c2)cc1 [Example 52, {4-[2-(2-Methyl-4,5-diphenyl-imidazol-1-yl)-ethoxy]-phenyl}-carbamic acid 3,4-difluoro-phenyl ester] | 1000 to 10000 nM |
| Cc1nc(-c2ccccc2)c(-c2ccccc2)n1CCOc1ccc(NC(=O)Oc2ccc(Cl)cc2)cc1 [Example 53, {4-[2-(2-Methyl-4,5-diphenyl-imidazol-1-yl)-ethoxy]-phenyl}-carbamic acid 4-chloro-phenyl ester] | 1000 to 10000 nM |
| Cc1nc(-c2ccccc2)c(-c2ccccc2)n1CCCOc1ccc(NC(=O)Oc2ccc(F)c(F)c2)cc1 [Example 55, {4-[3-(2-Methyl-4,5-diphenyl-imidazol-1-yl)-propoxy]-phenyl}-carbamic acid 3,4-difluoro-phenyl ester] | 100 to 1000 nM |
| COc1ccc(OC(=O)Nc2ccc(OCCCn3c(C)nc(-c4ccccc4)c3-c3ccccc3)cc2)cc1 [Example 56, {4-[3-(2-Methyl-4,5-diphenyl-imidazol-1-yl)-propoxy]-phenyl}-carbamic acid 4-methoxy-phenyl ester] | 100 to 1000 nM |
| Cc1nc(-c2ccccc2)c(-c2ccccc2)n1CCCOc1ccc(NC(=O)Oc2ccc(Cl)cc2)cc1 [Example 57, {4-[3-(2-Methyl-4,5-diphenyl-imidazol-1-yl)-propoxy]-phenyl}-carbamic acid 4-chloro-phenyl ester] | 100 to 1000 nM |
| Cc1nc(-c2ccccc2)c(-c2ccccc2)n1CCCOc1ccc(NC(=O)Oc2cccc(Cl)c2)cc1 [Example 59, {4-[3-(2-Methyl-4,5-diphenyl-imidazol-1-yl)-propoxy]-phenyl}-carbamic acid 3-chloro-phenyl ester] | 100 to 1000 nM |
| Cc1nc(-c2ccccc2)c(-c2ccccc2)n1CCOc1ccc(NC(=O)Oc2ccccc2)cc1 [Example 60, {4-[2-(2-Methyl-4,5-diphenyl-imidazol-1-yl)-ethoxy]-phenyl}-carbamic acid phenyl ester] | 1000 to 10000 nM |
| Cc1nc(-c2ccccc2)c(-c2ccccc2)n1CCOc1ccc(NC(=O)Oc2ccccc2F)cc1 [Example 61, {4-[2-(2-Methyl-4,5-diphenyl-imidazol-1-yl)-ethoxy]-phenyl}-carbamic acid 2-fluoro-phenyl ester] | 1000 to 10000 nM |
| Cc1nc(-c2ccccc2)c(-c2ccccc2)n1CCOc1ccc(NC(=O)Oc2ccc(F)cc2)cc1 [Example 62, {4-[2-(2-Methyl-4,5-diphenyl-imidazol-1-yl)-ethoxy]-phenyl}-carbamic acid 4-fluoro-phenyl ester] | 1000 to 10000 nM |
| Cc1nc(-c2ccccc2)c(-c2ccccc2)n1CCCOc1ccc(NC(=O)Oc2ccccc2)cc1 [Example 63, {4-[3-(2-Methyl-4,5-diphenyl-imidazol1-yl)-propoxy]-phenyl}-carbamic acid phenyl ester] | 1000 to 10000 nM |
| COc1ccc(OC(=O)Nc2ccc(OCCn3c(C)nc(-c4ccccc4)c3-c3ccccc3)cc2)cc1 [Example 64, {4-[2-(2-Methyl-4,5-diphenyl-imidazol-1-yl)-ethoxy]-phenyl}-carbamic acid 4-methoxy-phenyl ester] | 1000 to 10000 nM |
| Cc1nc(-c2ccccc2)c(-c2ccccc2)n1CCCOc1ccc(NC(=O)Oc2ccccc2F)cc1 [Example 66, {4-[3-(2-Methyl-4,5-diphenyl-imidazol-1-yl)-propoxy]-phenyl}-carbamic acid 2-fluoro-phenyl ester] | 1000 to 10000 nM |
| Cc1nc(-c2ccccc2)c(-c2ccccc2)n1CCCOc1ccc(NC(=O)Oc2c(F)cccc2F)cc1 [Example 69, {4-[3-(2-Methyl-4,5-diphenyl-imidazol-1-yl)-propoxy]-phenyl}-carbamic acid 2,6-difluoro-phenyl ester] | 1000 to 10000 nM |
| CCOC(=O)Nc1ccc(OCCn2c(C)nc(-c3ccccc3)c2-c2ccccc2)cc1 [Example 70, {4-[2-(2-Methyl-4,5-diphenyl-imidazol-1-yl)-ethoxy]-phenyl}-carbamic acid ethyl ester] | 1000 to 10000 nM |

From USRE39634E1, “Bisarylimidazoly fatty acid amide hydrolase inhibitors” (Bristol-Myers Squibb Company, priority 2001, dated 2007)
